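Tested at 5 concentrations; 48 h exposure; 96-well plates; endpoints linearly interpolated, else capped at highest concentration. Definition used: TGI = concentration required for complete inhibition of growth.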
Assays:
Experiment in all cases: inhibition of tumour cell growth, NCI panel, 48 h
SK-OV-3 ovarian = tested on: SK-OV-3 ovarian
CCRF-CEM leukemia = tested on: CCRF-CEM leukemia
MOLT-4 leukemia = tested on: MOLT-4 leukemia
SN12C renal = tested on: SN12C renal
HS 578T breast = tested on: HS 578T breast
MDA-MB-435 = tested on: MDA-MB-435
OVCAR-3 ovarian = tested on: OVCAR-3 ovarian
RPMI-8226 leukemia = tested on: RPMI-8226 leukemia
SK-MEL-28 melanoma = tested on: SK-MEL-28 melanoma
NCI-H23 lung = tested on: NCI-H23 lung
786-0 renal = tested on: 786-0 renal
U251 CNS = tested on: U251 CNS
SF-268 CNS = tested on: SF-268 CNS
UACC-62 melanoma = tested on: UACC-62 melanoma
HOP-62 NSCLC = tested on: HOP-62 NSCLC
MDA-N = tested on: MDA-N
A549 NSCLC = tested on: A549 NSCLC
LOX IMVI melanoma = tested on: LOX IMVI melanoma
HT29 colon = tested on: HT29 colon
OVCAR-4 ovarian = tested on: OVCAR-4 ovarian
PC-3 prostate = tested on: PC-3 prostate
M14 melanoma = tested on: M14 melanoma
SF-295 CNS = tested on: SF-295 CNS
K-562 leukemia = tested on: K-562 leukemia
SW-620 colon = tested on: SW-620 colon
OVCAR-5 ovarian = tested on: OVCAR-5 ovarian
IGROV1 ovarian = tested on: IGROV1 ovarian
NCI/ADR-RES ovarian = tested on: NCI/ADR-RES ovarian
HCT-15 colon = tested on: HCT-15 colon
HL-60(TB) leukemia = tested on: HL-60(TB) leukemia
ACHN renal = tested on: ACHN renal
UACC-257 melanoma = tested on: UACC-257 melanoma
NCI-H460 lung = tested on: NCI-H460 lung
HCT-116 colon = tested on: HCT-116 colon
TK-10 renal = tested on: TK-10 renal
SK-MEL-5 melanoma = tested on: SK-MEL-5 melanoma
HCC-2998 colon = tested on: HCC-2998 colon
NCI-H226 lung = tested on: NCI-H226 lung
SF-539 CNS = tested on: SF-539 CNS
SR leukemia = tested on: SR leukemia
COLO 205 colon = tested on: COLO 205 colon
BT-549 breast = tested on: BT-549 breast
DU-145 prostate = tested on: DU-145 prostate
MCF7 breast = tested on: MCF7 breast
CAKI-1 renal = tested on: CAKI-1 renal
UO-31 renal = tested on: UO-31 renal
SK-MEL-2 melanoma = tested on: SK-MEL-2 melanoma
HOP-92 NSCLC = tested on: HOP-92 NSCLC
MDA-MB-231 breast = tested on: MDA-MB-231 breast
KM12 colon = tested on: KM12 colon
A498 renal = tested on: A498 renal
OVCAR-8 ovarian = tested on: OVCAR-8 ovarian
T-47D breast = tested on: T-47D breast
RXF 393 renal = tested on: RXF 393 renal
SNB-19 CNS = tested on: SNB-19 CNS
EKVX NSCLC = tested on: EKVX NSCLC
MALME-3M melanoma = tested on: MALME-3M melanoma

SMILES: CCOC(=O)c1nc2ccc(C(F)(F)F)cc2[nH]c1=O
- TGI (SK-OV-3 ovarian): > 100 µM
- TGI (CCRF-CEM leukemia): > 100 µM
- TGI (MOLT-4 leukemia): > 100 µM
- TGI (SN12C renal): > 100 µM
- TGI (HS 578T breast): > 100 µM
- TGI (MDA-MB-435): > 100 µM
- TGI (OVCAR-3 ovarian): > 100 µM
- TGI (RPMI-8226 leukemia): > 100 µM
- TGI (SK-MEL-28 melanoma): > 100 µM
- TGI (NCI-H23 lung): > 100 µM
- TGI (786-0 renal): > 100 µM
- TGI (U251 CNS): > 100 µM
- TGI (SF-268 CNS): > 100 µM
- TGI (UACC-62 melanoma): > 100 µM
- TGI (HOP-62 NSCLC): > 100 µM
- TGI (MDA-N): > 100 µM
- TGI (A549 NSCLC): > 100 µM
- TGI (LOX IMVI melanoma): > 100 µM
- TGI (HT29 colon): > 100 µM
- TGI (OVCAR-4 ovarian): > 100 µM
- TGI (PC-3 prostate): > 100 µM
- TGI (M14 melanoma): > 100 µM
- TGI (SF-295 CNS): > 100 µM
- TGI (K-562 leukemia): > 100 µM
- TGI (SW-620 colon): > 100 µM
- TGI (OVCAR-5 ovarian): > 100 µM
- TGI (IGROV1 ovarian): > 100 µM
- TGI (NCI/ADR-RES ovarian): > 100 µM
- TGI (HCT-15 colon): > 100 µM
- TGI (HL-60(TB) leukemia): > 100 µM
- TGI (ACHN renal): > 100 µM
- TGI (UACC-257 melanoma): > 100 µM
- TGI (NCI-H460 lung): > 100 µM
- TGI (HCT-116 colon): > 100 µM
- TGI (TK-10 renal): > 100 µM
- TGI (SK-MEL-5 melanoma): > 100 µM
- TGI (HCC-2998 colon): > 100 µM
- TGI (NCI-H226 lung): > 100 µM
- TGI (SF-539 CNS): > 100 µM
- TGI (SR leukemia): > 100 µM
- TGI (COLO 205 colon): > 100 µM
- TGI (BT-549 breast): > 100 µM
- TGI (DU-145 prostate): > 100 µM
- TGI (MCF7 breast): > 100 µM
- TGI (CAKI-1 renal): > 100 µM
- TGI (UO-31 renal): > 100 µM
- TGI (SK-MEL-2 melanoma): > 100 µM
- TGI (HOP-92 NSCLC): > 100 µM
- TGI (MDA-MB-231 breast): > 100 µM
- TGI (KM12 colon): > 100 µM
- TGI (A498 renal): > 100 µM
- TGI (OVCAR-8 ovarian): > 100 µM
- TGI (T-47D breast): > 100 µM
- TGI (RXF 393 renal): > 100 µM
- TGI (SNB-19 CNS): > 100 µM

SMILES: CNC(=S)N=Nc1c(O)n(CN2CCOCC2)c2ccc([N+](=O)[O-])cc12
- TGI (SK-OV-3 ovarian): 31.9 µM
- TGI (CCRF-CEM leukemia): 71.8 µM
- TGI (MOLT-4 leukemia): > 100 µM
- TGI (SN12C renal): 38.5 µM
- TGI (HS 578T breast): 73 µM
- TGI (MDA-MB-435): > 100 µM
- TGI (OVCAR-3 ovarian): 34.5 µM
- TGI (RPMI-8226 leukemia): 50.5 µM
- TGI (SK-MEL-28 melanoma): 54.8 µM
- TGI (NCI-H23 lung): 32.2 µM
- TGI (786-0 renal): 28.7 µM
- TGI (U251 CNS): 37.6 µM
- TGI (SF-268 CNS): 47.5 µM
- TGI (UACC-62 melanoma): 33.3 µM
- TGI (HOP-62 NSCLC): 28.2 µM
- TGI (MDA-N): > 100 µM
- TGI (A549 NSCLC): > 100 µM
- TGI (LOX IMVI melanoma): 31.8 µM
- TGI (HT29 colon): > 100 µM
- TGI (OVCAR-4 ovarian): 31.2 µM
- TGI (PC-3 prostate): 57.5 µM
- TGI (M14 melanoma): > 100 µM
- TGI (SF-295 CNS): 53.4 µM
- TGI (K-562 leukemia): > 100 µM
- TGI (SW-620 colon): > 100 µM
- TGI (OVCAR-5 ovarian): 70.5 µM
- TGI (NCI/ADR-RES ovarian): 38 µM
- TGI (HCT-15 colon): 26.6 µM
- TGI (HL-60(TB) leukemia): 69.8 µM
- TGI (ACHN renal): 35.3 µM
- TGI (UACC-257 melanoma): 77.6 µM
- TGI (NCI-H460 lung): 75 µM
- TGI (HCT-116 colon): 28.7 µM
- TGI (TK-10 renal): 29.8 µM
- TGI (SK-MEL-5 melanoma): > 100 µM
- TGI (HCC-2998 colon): 45.1 µM
- TGI (NCI-H226 lung): 36.3 µM
- TGI (EKVX NSCLC): 43.7 µM
- TGI (SF-539 CNS): 33.1 µM
- TGI (SR leukemia): > 100 µM
- TGI (COLO 205 colon): 91.3 µM
- TGI (MALME-3M melanoma): 43.3 µM
- TGI (DU-145 prostate): 27.3 µM
- TGI (MCF7 breast): 42.9 µM
- TGI (CAKI-1 renal): 64.1 µM
- TGI (UO-31 renal): 14.2 µM
- TGI (SK-MEL-2 melanoma): 21.2 µM
- TGI (HOP-92 NSCLC): 43.9 µM
- TGI (MDA-MB-231 breast): 25 µM
- TGI (KM12 colon): 97.9 µM
- TGI (A498 renal): 66.8 µM
- TGI (T-47D breast): 38.9 µM
- TGI (RXF 393 renal): 30 µM
- TGI (SNB-19 CNS): 61.2 µM
